Assay results as given in article PMC11079024, “Identification of a family of species-selective complex I inhibitors as potential anthelmintics” (Nature Communications, 2024).
pIC50: −log10 of the molar value. Read-outs that look alike come from different tables or passages of the source.

Key:
[1] = target: C. elegans (N2) complex I (NADH:ubiquinone oxidoreductase) (Caenorhabditis elegans, UniProt P24887+Q93873+Q94360); test: biochemical; type: biochemical; conditions: for activity at 0.0001 µM / activity at 0.0005 µM / activity at 0.001 µM / activity at 0.0025 µM / activity at 0.005 µM / activity at 0.013 µM / activity at 0.025 µM / activity at 0.063 µM / activity at 0.125 µM / activity at 0.313 µM / activity at 0.625 µM / activity at 1.5 µM / activity at 3 µM / activity at 15 µM / activity at 37.5 µM / activity at 75 µM: read-out: C. elegans mitochondrial complex I activity; for Log IC50 C. elegans complex I: log10 of IC50 in µM, C. elegans mitochondria
Sequence of C. elegans (N2) complex I (NADH:ubiquinone oxidoreductase) (Q94360 17-199): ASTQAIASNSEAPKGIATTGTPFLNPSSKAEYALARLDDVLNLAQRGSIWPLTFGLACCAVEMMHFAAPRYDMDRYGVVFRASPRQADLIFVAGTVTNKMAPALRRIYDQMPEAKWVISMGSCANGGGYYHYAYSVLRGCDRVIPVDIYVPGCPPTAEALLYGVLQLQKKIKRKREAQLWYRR
Sequence of C. elegans (N2) complex I (NADH:ubiquinone oxidoreductase) (P24887 whole entry): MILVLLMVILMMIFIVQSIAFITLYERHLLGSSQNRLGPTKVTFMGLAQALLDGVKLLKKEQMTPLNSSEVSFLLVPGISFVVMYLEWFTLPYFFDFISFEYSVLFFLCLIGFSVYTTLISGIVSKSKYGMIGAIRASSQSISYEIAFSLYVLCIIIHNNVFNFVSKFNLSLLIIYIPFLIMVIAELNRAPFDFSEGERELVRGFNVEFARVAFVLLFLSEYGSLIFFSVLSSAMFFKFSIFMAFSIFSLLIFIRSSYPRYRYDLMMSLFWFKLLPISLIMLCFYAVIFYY
Sequence of C. elegans (N2) complex I (NADH:ubiquinone oxidoreductase) (Q93873 31-482): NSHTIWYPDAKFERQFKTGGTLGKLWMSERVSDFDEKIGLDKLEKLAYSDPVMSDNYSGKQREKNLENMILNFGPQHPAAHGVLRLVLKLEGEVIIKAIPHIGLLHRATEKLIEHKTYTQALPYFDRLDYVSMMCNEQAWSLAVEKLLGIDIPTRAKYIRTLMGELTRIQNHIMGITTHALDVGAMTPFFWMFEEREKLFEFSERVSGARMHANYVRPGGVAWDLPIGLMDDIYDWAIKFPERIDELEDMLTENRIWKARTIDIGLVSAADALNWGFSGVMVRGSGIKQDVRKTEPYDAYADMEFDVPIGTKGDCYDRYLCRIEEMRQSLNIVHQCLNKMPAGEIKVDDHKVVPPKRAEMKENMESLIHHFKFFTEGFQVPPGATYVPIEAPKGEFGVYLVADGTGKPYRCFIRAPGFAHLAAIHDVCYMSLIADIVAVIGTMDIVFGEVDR
How it was run: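 Mitochondria, 0.2 mg/mL protein, freeze-thawed three times, assayed in 25 mM KPi pH 7.5 with BSA, 80 μM NADH, 60 μM decylubiquinone, 160 μM DCIP, antimycin A and KCN. Rate from initial linear slope of A600 over 15 min. % of solvent control.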

[2] = target: B. taurus (heart) complex I (Bos taurus, UniProt P03887+P17694+P42026); test: biochemical; type: biochemical; conditions: for pIC50: B. taurus heart mitochondria, read-out: B. taurus Complex I IC50; for activity at 0.0001 µM / activity at 0.0005 µM / activity at 0.001 µM / activity at 0.0025 µM / activity at 0.005 µM / activity at 0.013 µM / activity at 0.025 µM / activity at 0.063 µM / activity at 0.125 µM / activity at 0.313 µM / activity at 0.625 µM / activity at 1.5 µM / activity at 3 µM / activity at 15 µM / activity at 37.5 µM / activity at 75 µM: read-out: B. taurus mitochondrial complex I activity; for Log IC50 B. taurus complex I: log10 of IC50 in µM, B. taurus mitochondria
Sequence of B. taurus (heart) complex I (P03887 whole entry): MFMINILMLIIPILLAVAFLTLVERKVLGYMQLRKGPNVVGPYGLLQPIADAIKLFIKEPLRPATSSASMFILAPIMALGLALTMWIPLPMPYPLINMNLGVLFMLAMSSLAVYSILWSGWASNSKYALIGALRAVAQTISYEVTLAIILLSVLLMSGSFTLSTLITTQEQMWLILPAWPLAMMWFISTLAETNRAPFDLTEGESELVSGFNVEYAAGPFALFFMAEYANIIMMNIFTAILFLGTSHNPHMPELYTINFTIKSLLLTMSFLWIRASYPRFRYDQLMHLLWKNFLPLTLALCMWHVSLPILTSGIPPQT
Sequence of B. taurus (heart) complex I (P17694 34-463): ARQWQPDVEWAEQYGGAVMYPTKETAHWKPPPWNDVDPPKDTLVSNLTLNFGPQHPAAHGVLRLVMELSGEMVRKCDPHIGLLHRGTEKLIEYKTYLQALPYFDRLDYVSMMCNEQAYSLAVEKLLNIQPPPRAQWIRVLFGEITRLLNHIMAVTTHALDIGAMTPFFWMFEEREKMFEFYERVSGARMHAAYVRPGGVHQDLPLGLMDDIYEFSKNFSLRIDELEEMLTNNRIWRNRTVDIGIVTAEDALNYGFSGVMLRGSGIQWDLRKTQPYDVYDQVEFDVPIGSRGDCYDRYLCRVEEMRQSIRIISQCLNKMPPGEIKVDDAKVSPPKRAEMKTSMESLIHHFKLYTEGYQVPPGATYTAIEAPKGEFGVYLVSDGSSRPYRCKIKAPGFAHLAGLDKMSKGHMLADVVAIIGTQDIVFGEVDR
Sequence of B. taurus (heart) complex I (P42026 38-216): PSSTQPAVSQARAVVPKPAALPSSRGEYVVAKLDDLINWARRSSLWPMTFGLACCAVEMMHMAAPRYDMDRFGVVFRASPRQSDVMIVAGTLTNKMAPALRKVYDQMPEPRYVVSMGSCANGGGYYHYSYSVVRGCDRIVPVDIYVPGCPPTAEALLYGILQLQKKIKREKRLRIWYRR
How it was run: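 Complex I activity followed as DCIP reduction (600 nm, 30 s reads, 15 min) with 80 μM NADH and 60 μM decylubiquinone in 25 mM KPi pH 7.5 containing 2 μM antimycin A and 2 mM KCN. Freeze-thawed mouse or bovine heart mitochondria at 0.2 mg/mL; initial-rate percent of solvent control, single-point 100 μM or dose-response.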

[3] = in vitro complex I dose response on C. elegans mitochondria, average of at least two biological replicates, fit in R (DRC), read-out: IC50 C. elegans complex I
[4] = wild-type (N2) mitochondria, read-out: C. elegans Complex I IC50
[5] = wild-type C. elegans mitochondria, estimated from fitted dose-response curves, read-out: C. elegans Complex I IC50
[6] = estimated from fitted dose-response curves
[7] = wild-type C. elegans mitochondria, read-out: C. elegans Complex I IC50

## Cc1nc2ccccc2n1Cc1ccc(Cl)c(Cl)c1 [Compound 5655567]
[1]
  activity at 0.0001 µM: 86.1%
  activity at 0.0005 µM: 92.1%
  activity at 0.001 µM: 93.5%
  activity at 0.0025 µM: 93.8%
  activity at 0.005 µM: 90.5%
  activity at 0.013 µM: 90.4%
  activity at 0.025 µM: 78.8%
  activity at 0.063 µM: 76.6%
  activity at 0.125 µM: 72.5%
  activity at 0.313 µM: 39.7%
  activity at 0.625 µM: 49.3%
  activity at 1.5 µM: 25.2%
  activity at 3 µM: 11.5%
  activity at 15 µM: 0.44%
  activity at 37.5 µM: 0.7%
  activity at 75 µM: 0.75%
  Log IC50 C. elegans complex I: -0.33 µM
[1]; [3]
  pIC50: 6.33
[1]; [4]
  pIC50: 6.33
[1]; [5]
  pIC50: 6.33
[2]; [6]
  pIC50: 5.93
[2]
  activity at 0.0001 µM: 91.2%
  activity at 0.0005 µM: 90.2%
  activity at 0.001 µM: 95.5%
  activity at 0.0025 µM: 94.9%
  activity at 0.005 µM: 95.5%
  activity at 0.013 µM: 85.5%
  activity at 0.025 µM: 82.4%
  activity at 0.063 µM: 79.8%
  activity at 0.125 µM: 78.8%
  activity at 0.313 µM: 62.7%
  activity at 0.625 µM: 60.2%
  activity at 1.5 µM: 41.5%
  activity at 3 µM: 23.2%
  activity at 15 µM: 1.19%
  activity at 37.5 µM: 0.14%
  activity at 75 µM: 0.62%
  Log IC50 B. taurus complex I: 0.07 µM

## Cc1nc2ccccc2n1CCOc1ccccc1Cl [Compound 5561642]
[1]
  activity at 0.0001 µM: 91.5%
  activity at 0.0005 µM: 94%
  activity at 0.001 µM: 89.2%
  activity at 0.0025 µM: 95%
  activity at 0.005 µM: 93.1%
  activity at 0.013 µM: 84.7%
  activity at 0.025 µM: 83.1%
  activity at 0.063 µM: 81.1%
  activity at 0.125 µM: 84.1%
  activity at 0.313 µM: 65.5%
  activity at 0.625 µM: 71.7%
  activity at 1.5 µM: 51.9%
  activity at 3 µM: 40.7%
  activity at 15 µM: 12.4%
  activity at 37.5 µM: 4.46%
  activity at 75 µM: 4.41%
  Log IC50 C. elegans complex I: 0.37 µM
[1]; [3]
  pIC50: 5.63
[1]; [7]
  pIC50: 5.63
[2]
  pIC50: 5.09
  activity at 0.0001 µM: 88.4%
  activity at 0.0005 µM: 88.9%
  activity at 0.001 µM: 90.3%
  activity at 0.0025 µM: 85.7%
  activity at 0.005 µM: 90.4%
  activity at 0.013 µM: 86.9%
  activity at 0.025 µM: 83.6%
  activity at 0.063 µM: 88.9%
  activity at 0.125 µM: 88.4%
  activity at 0.313 µM: 83.2%
  activity at 0.625 µM: 86.2%
  activity at 1.5 µM: 75.9%
  activity at 3 µM: 63.2%
  activity at 15 µM: 29.8%
  activity at 37.5 µM: 11.9%
  activity at 75 µM: 6%
  Log IC50 B. taurus complex I: 0.91 µM

## Cc1cccc(OCCn2c(C)nc3ccccc32)c1 [Compound 6285199]
[1]
  activity at 0.0001 µM: 94.3%
  activity at 0.0005 µM: 99.3%
  activity at 0.001 µM: 86.9%
  activity at 0.0025 µM: 85.8%
  activity at 0.005 µM: 87.6%
  activity at 0.013 µM: 90.6%
  activity at 0.025 µM: 92.4%
  activity at 0.063 µM: 78.1%
  activity at 0.125 µM: 81.6%
  activity at 0.313 µM: 54.6%
  activity at 0.625 µM: 53.7%
  activity at 1.5 µM: 35.3%
  activity at 3 µM: 23.4%
  activity at 15 µM: 3.64%
  activity at 37.5 µM: 1.37%
  activity at 75 µM: 1.88%
  Log IC50 C. elegans complex I: -0.0757 µM
[1]; [3]
  pIC50: 6.08
[1]; [5]
  pIC50: 6.08
[2]; [6]
  pIC50: 5.30
[2]
  activity at 0.0001 µM: 98.3%
  activity at 0.0005 µM: 97.3%
  activity at 0.001 µM: 100%
  activity at 0.0025 µM: 95.3%
  activity at 0.005 µM: 95.1%
  activity at 0.013 µM: 97.1%
  activity at 0.025 µM: 95.3%
  activity at 0.063 µM: 88.5%
  activity at 0.125 µM: 87.7%
  activity at 0.313 µM: 83.8%
  activity at 0.625 µM: 79%
  activity at 1.5 µM: 67.9%
  activity at 3 µM: 54%
  activity at 15 µM: 18.4%
  activity at 37.5 µM: 5.61%
  activity at 75 µM: 1.08%
  Log IC50 B. taurus complex I: 0.70 µM

## Cc1ccc(OCCn2cnc3ccccc32)c(C)c1 [Compound 7706808]
[1]
  activity at 0.0001 µM: 101%
  activity at 0.0005 µM: 107%
  activity at 0.001 µM: 103%
  activity at 0.0025 µM: 109%
  activity at 0.005 µM: 101%
  activity at 0.013 µM: 107%
  activity at 0.025 µM: 105%
  activity at 0.063 µM: 101%
  activity at 0.125 µM: 94.3%
  activity at 0.313 µM: 97.4%
  activity at 0.625 µM: 70.9%
  activity at 1.5 µM: 55.5%
  activity at 3 µM: 44.2%
  activity at 15 µM: 16.3%
  activity at 37.5 µM: 13.2%
  activity at 75 µM: 13.5%
  Log IC50 C. elegans complex I: 0.16 µM
[1]; [3]
  pIC50: 5.84
[1]; [5]
  pIC50: 5.84
[2]; [6]
  pIC50: 5.07
[2]
  activity at 0.0001 µM: 97.5%
  activity at 0.0005 µM: 94.8%
  activity at 0.001 µM: 99.1%
  activity at 0.0025 µM: 97%
  activity at 0.005 µM: 95.6%
  activity at 0.013 µM: 97.8%
  activity at 0.025 µM: 90.5%
  activity at 0.063 µM: 96%
  activity at 0.125 µM: 93.5%
  activity at 0.313 µM: 91.4%
  activity at 0.625 µM: 82.8%
  activity at 1.5 µM: 81.2%
  activity at 3 µM: 69.4%
  activity at 15 µM: 30.6%
  activity at 37.5 µM: 11.4%
  activity at 75 µM: 6.37%
  Log IC50 B. taurus complex I: 0.93 µM

## Brc1ccccc1OCCCCn1cnc2ccccc21 [Compound 7924576]
[1]
  activity at 0.0001 µM: 82.9%
  activity at 0.0005 µM: 89.9%
  activity at 0.001 µM: 81.8%
  activity at 0.0025 µM: 93.2%
  activity at 0.005 µM: 91.6%
  activity at 0.013 µM: 87.2%
  activity at 0.025 µM: 76%
  activity at 0.063 µM: 73.6%
  activity at 0.125 µM: 67.2%
  activity at 0.313 µM: 52.4%
  activity at 0.625 µM: 40.5%
  activity at 1.5 µM: 21.3%
  activity at 3 µM: 12.5%
  activity at 15 µM: 10.2%
  activity at 75 µM: 5.45%
  Log IC50 C. elegans complex I: -0.37 µM
[1]; [5]
  pIC50: 6.37
[2]; [6]
  pIC50: 5.94
[2]
  activity at 0.0001 µM: 104%
  activity at 0.0005 µM: 101%
  activity at 0.001 µM: 108%
  activity at 0.0025 µM: 104%
  activity at 0.005 µM: 101%
  activity at 0.013 µM: 102%
  activity at 0.025 µM: 102%
  activity at 0.063 µM: 96.3%
  activity at 0.125 µM: 84.6%
  activity at 0.313 µM: 74.3%
  activity at 0.625 µM: 68%
  activity at 1.5 µM: 44.1%
  activity at 3 µM: 32%
  activity at 15 µM: 6.52%
  activity at 37.5 µM: 3.45%
  activity at 75 µM: 3.05%
  Log IC50 B. taurus complex I: 0.0569 µM

## Clc1ccc(OCCn2cnc3ccccc32)c(Cl)c1 [Compound 7221649]
[1]
  activity at 0.0001 µM: 92.4%
  activity at 0.0005 µM: 97.1%
  activity at 0.001 µM: 98.6%
  activity at 0.0025 µM: 106%
  activity at 0.005 µM: 107%
  activity at 0.013 µM: 101%
  activity at 0.025 µM: 101%
  activity at 0.063 µM: 94.8%
  activity at 0.125 µM: 93.4%
  activity at 0.313 µM: 89.3%
  activity at 0.625 µM: 84.8%
  activity at 1.5 µM: 71.9%
  activity at 3 µM: 58.5%
  activity at 15 µM: 22.2%
  activity at 37.5 µM: 11.4%
  activity at 75 µM: 6.54%
  Log IC50 C. elegans complex I: 0.62 µM
[1]; [3]
  pIC50: 5.38
[1]; [7]
  pIC50: 5.38
[2]
  pIC50: 4.97
  activity at 0.0001 µM: 92.5%
  activity at 0.0005 µM: 88.5%
  activity at 0.001 µM: 89.7%
  activity at 0.0025 µM: 97.8%
  activity at 0.005 µM: 98.8%
  activity at 0.013 µM: 94.3%
  activity at 0.025 µM: 92%
  activity at 0.063 µM: 90.2%
  activity at 0.125 µM: 86.5%
  activity at 0.313 µM: 88%
  activity at 0.625 µM: 83.9%
  activity at 1.5 µM: 85.6%
  activity at 3 µM: 77.8%
  activity at 15 µM: 33%
  activity at 37.5 µM: 7.81%
  activity at 75 µM: 3.92%
  Log IC50 B. taurus complex I: 1.03 µM

## Nc1nc2ccccc2n1Cc1ccc(Br)cc1 [Compound 7313068]
[1]; [3]
  pIC50: 6.47
[1]
  Log IC50 C. elegans complex I: -0.47 µM
[1]; [4]
  pIC50: 6.47
[1]; [5]
  pIC50: 6.47
[2]; [6]
  pIC50: 5.88
[2]
  Log IC50 B. taurus complex I: 0.12 µM
